The numbers were not newly measured in PMC3368153 (Nature chemical biology, 2012), which cites them from elsewhere.

One data set relates to γ2 F77Y GABAAR. To be noted: versus wild type.
The subject of another data set is γ2 F77I GABAAR. Particulars: versus wild type.
The test system of another data set is α1 Y209A GABAAR. Particulars: versus wild type.
The next data set relates to α1 H101C GABAAR. Particulars: versus wild type.
Data set [1] has as its system α1 His101 replaced by glutamine, GABAAR. Particulars: versus wild type.

As for `CN1C(=O)CN=C(c2ccccc2)c2cc(Cl)ccc21` [diazepam], the “tolerance of point mutation γ2 F77L (affinity)” value in the data set on γ2 F77L GABAAR is on record as “tolerated well”. In the data set with γ2 F77Y GABAAR, the “affinity loss (factor), γ2 F77Y” value is on record as 250. Also, in the data set with γ2 F77I GABAAR, the “loss of affinity (factor), γ2 F77I” value is given as 4-5. In the data set on α1 Y209A GABAAR, the “decrease in binding affinity (factor), α1 Y209A” value was 40.

With `CCOC(=O)c1ncn2c1CN(C)C(=O)c1cc(F)ccc1-2` [flumazenil], the “tolerance of point mutation γ2 F77L (affinity)” value in the data set with γ2 F77L GABAAR is recorded as “tolerated well”. In addition, the “affinity in α1 H101R mutant” value with α1 H101R mutation GABAAR is listed as “tolerate this mutation”. In addition, the “loss of affinity (factor), γ2 F77I” value in the data set on γ2 F77I GABAAR was 2,000. In addition, the “decrease in binding affinity (factor), α1 Y209A” value in the data set with α1 Y209A GABAAR is listed as 41.

For the compound `CN1C(=O)CN=C(c2ccccc2F)c2cc([N+](=O)[O-])ccc21` [flunitrazepam], the “loss of affinity (factor), cysteine at α1 His101” value in the data set on α1 H101C GABAAR is given as 200. Besides, the “affinity in α1 H101R mutant” value in the data set on α1 H101R mutation GABAAR is on record as “drastically reduced affinity”. Also, the “loss of affinity (factor), glutamine at α1 His101” value in data set [1] was 15.

As to Ro15-8670, in the data set with γ2 F77I GABAAR, the “loss of affinity (factor), γ2 F77I” value is recorded as 4-5.

Turning to dichlorodiazepam, the “affinity loss (factor), γ2 F77Y” value in the data set on γ2 F77Y GABAAR is 700.

For the compound monochlorodiazepam, the “affinity loss (factor), γ2 F77Y” value in the data set with γ2 F77Y GABAAR is 530.
